In US7524887B2, “2-amino-1,3-propanediol compounds for the treatment of acute pain” (Sanofi-Aventis Deutschland GmbH, priority 2003, dated 2009):

Legend:
[1] = test system: Sprague Dawley rats (formalin model of acute pain); test: Formalin test after intrathecal application of S1P; format: in vivo, rat; conditions: for Mean flinches in 5 min interval: 20 μl of 10 μM S1P intrathecal 15 min prior to formalin, mean of six animals
Procedure: The analgesic effect of sphingosine-1-phosphate (S1P) was determined by intrathecal application to the spinal cord by:
Wild type Sprague Dawley rats were purchased from Charles River Wiga GmbH (Sulzfeld, Germany). The animals had free access to food and water prior to the experiments. They were maintained in climate- and light-controlled rooms (24+0.5° C.). Each animal was used at one occasion only. In all experiments the ethics guidelines for investigations in conscious animals were obeyed, and the procedures were approved by the local Ethics Committee.
Rats were anesthetized with ketamine (60 mg/kg i.p.) and midazolam (0.5 to 1 mg/kg i.p.). The skin was incised above the vertebral column from vertebrae Th13 up to L3. Muscle tissue around L2-3 was cleared away. The processus spinosus of L3 was removed and a laminectomy was done at L2. Polyethylene catheters (ID 0.28 mm, OD 0.61 mm) were then inserted into the peridural space so that the tip of the catheter reached Th9-10. The catheter was fixed with cyanacrylate glue and was externalized in the neck region and the skin was sutured.
Three days after surgery rats were placed into a “freely moving system” (CMA, Stockholm, Sweden) 20 μl of 10 μM S1P, purchased from Tocris (Ellisville, Mo.), were infused through the catheter.
Within 15 min after stopping the infusion the formalin test was performed. 50 μL of a 5% formaldehyde solution were injected subcutaneously (s. c.) into the dorsal surface of one hind paw. Flinches were counted in one-minute intervals up to 60 min starting right after formalin injection. Flinches of 5 min intervals were summarized as mean flinches per minute. To compare the nociceptive behavior between groups the sum of flinches during the one-hour observation period were submitted to the Students t-test.
S1P was dissolved in DMSO to a final concentration of 2.5 mM and then diluted 1:250 in PBS. 20 μl of 10 μM S1P or 20 μl 0.1 M phosphate buffered saline, pH 7.2 (PBS,) in DMSO were given to adult rats by intrathecal application 15 minutes prior to the formalin injection. Then, flinches were counted in 5 minutes intervals over a period of 60 minutes.

[2] = test system: Sprague Dawley rats (formalin model of acute pain); test: Formalin test after interperitoneal injection of compound 1; format: in vivo, rat; conditions: for Mean flinches in 5 min interval: 1 mg/kg interperitoneally in PEG 3 hours prior to formalin, n = 5 rats
Procedure: Animals: Male Sprague Dawley rats weighing 300-350 g were purchased from Charles River Wiga GmbH (Sulzfeld, Germany). The animals had free access to food and water prior to the experiments. They were maintained in climate- and light-controlled rooms (24+0.5° C.). Each animal was used at one occasion only. In all experiments the ethics guidelines for investigations in conscious animals were obeyed and the procedures were approved by the local Ethics Committee. Formalin test: The formalin assay was performed in a dedicated room with restriction on sound level and activity. 2-amino-2-[2-(4-octylphenyl)ethyl]-1,3-propanediol hydrochloride (compound 1) was dissolved in polyethylene-glycol (PEG) at a concentration of 1 mg/ml and injected interperitoneally (1 mg/kg) 3 hours prior to the formalin tests were performed with compound 1. 50 μl of a 5% formaldehyde solution was injected subcutaneously (s.c.) into the dorsal surface of one hind paw. Rats were placed into a plexiglas chamber surrounded by mirrors to allow an unobstructed view of the paws. Flinches were counted in one-minute intervals up to 60 min starting right after formalin injection. Flinches of 5 min intervals were summarized as mean flinches per minute +SEM. Statistical analysis was performed using the student's t-test (*p<0.04).

CCCCCCCCCCCCC/C=C/[C@@H](O)[C@@H](N)COP(=O)(O)O [Compound S1P, sphingosine-1-phosphate]
Number of nociceptive responses for phase 2A compared to PBS/DMSO-treated animals ([1]; phase 2A = 20 to 35 minutes after formalin injection, 20 μl of 10 μM S1P intrathecal): significant decrease | Mean flinches in 5 min interval ([1]; time 5 min after formalin): 60.9 | Mean flinches in 5 min interval ([1]; time 10 min after formalin): 24.6 | Mean flinches in 5 min interval ([1]; time 15 min after formalin): 12.7 | Mean flinches in 5 min interval ([1]; time 20 min after formalin): 17.1 | Mean flinches in 5 min interval ([1]; time 25 min after formalin): 19.6 | Mean flinches in 5 min interval ([1]; time 30 min after formalin): 24.7 | Mean flinches in 5 min interval ([1]; time 35 min after formalin): 31.4 | Mean flinches in 5 min interval ([1]; time 40 min after formalin): 41.9 | Mean flinches in 5 min interval ([1]; time 45 min after formalin): 49.3 | Mean flinches in 5 min interval ([1]; time 50 min after formalin): 41.3 | Mean flinches in 5 min interval ([1]; time 55 min after formalin): 49.0 | Mean flinches in 5 min interval ([1]; time 60 min after formalin): 38.0

CCCCCCCCc1ccc(CCC(N)(CO)CO)cc1.Cl [Compound 1, 2-amino-2-[2-(4-octylphenyl)ethyl]-1,3-propanediol hydrochloride]
Number of nociceptive responses for phase 2A compared to the control animals ([2]; phase 2A = 20 to 35 minutes after formalin injection, 1 mg/kg interperitoneally, student's t-test): significant decrease | Mean flinches in 5 min interval ([2]; time 5 min after formalin): 85.4 | Mean flinches in 5 min interval ([2]; time 10 min after formalin): 41.2 | Mean flinches in 5 min interval ([2]; time 15 min after formalin): 33.6 | Mean flinches in 5 min interval ([2]; time 20 min after formalin): 29.6 | Mean flinches in 5 min interval ([2]; time 25 min after formalin): 31.6 | Mean flinches in 5 min interval ([2]; time 30 min after formalin): 51.4 | Mean flinches in 5 min interval ([2]; time 35 min after formalin): 49.2 | Mean flinches in 5 min interval ([2]; time 40 min after formalin): 48.0 | Mean flinches in 5 min interval ([2]; time 45 min after formalin): 48.6 | Mean flinches in 5 min interval ([2]; time 50 min after formalin): 39.8 | Mean flinches in 5 min interval ([2]; time 55 min after formalin): 42.6 | Mean flinches in 5 min interval ([2]; time 60 min after formalin): 42.2
